From PubChem BioAssay AID330 (DTP/NCI, 2004)
Several values for one entry are separate records, joined by “and”; a condition that tells them apart may be missing. Equal entries are not always repeated. Toxic doses and inconclusive results are not listed. How the source made its calls: active means survival T/C of 150% or more; inactive means T/C below 125% in these data. Numbered stars: 1 amine (or outer) side, 2 acyl side, 3 side chain; on linkers, the order of the positions; unused ones are H or OH. Square brackets hold non-standard residues; d marks the D form. Peptide text beside a SMILES is read from it. * marks the point of attachment. X18 = CCC(=O)CC1CC(C)CC(C(=O)[*:2])N1[*:1]; X17 = CCCCCCCCC(C)C(=O)*; Aib = CC(C)(N)C(=O)O; X19 = CC(CN(C)CCO)N*

Tested on: P388 leukemia ip, CD2F1 mice, survival T/C
Experiment: NCI In Vivo Anticancer Drug Screen. Data for tumor model P388 Leukemia (intraperitoneal) in CD2F1 (CDF1) mice
Conditions: endpoint: median survival time, higher = longer survival
Outline: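 Mice carrying the transplanted tumor received test compound or vehicle. Survival was recorded in each group, and the value is the treated-group measurement divided by that of the vehicle-treated control group.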

[1] = dose: 12.5 mg/kg/injection, schedule: Q01DX009 (ip), vehicle: saline with Tween-80
[2] = dose: 25.0 mg/kg/injection, schedule: Q01DX009 (ip), vehicle: saline with Tween-80
[3] = dose: 50.0 mg/kg/injection, schedule: Q01DX009 (ip), vehicle: saline with Tween-80
[4] = dose: 100.0 mg/kg/injection, schedule: Q01DX009 (ip), vehicle: saline with Tween-80
[5] = dose: 200.0 mg/kg/injection, schedule: Q01DX009 (ip), vehicle: saline with Tween-80
[6] = dose: 50.0 mg/kg/injection, schedule: Q01DX005 (ip), vehicle: saline with Tween-80
[7] = dose: 100.0 mg/kg/injection, schedule: Q01DX005 (ip), vehicle: saline with Tween-80
[8] = dose: 200.0 mg/kg/injection, schedule: Q01DX005 (ip), vehicle: saline with Tween-80
[9] = dose: 12.5 mg/kg/injection, schedule: Q01DX005 (ip), vehicle: Klucel (hydroxypropylcellulose) (HPC)
[10] = dose: 25.0 mg/kg/injection, schedule: Q01DX005 (ip), vehicle: Klucel (hydroxypropylcellulose) (HPC)
[11] = dose: 50.0 mg/kg/injection, schedule: Q01DX005 (ip), vehicle: Klucel (hydroxypropylcellulose) (HPC)
[12] = dose: 200.0 mg/kg/injection, schedule: Q01DX005 (ip), vehicle: Klucel (hydroxypropylcellulose) (HPC)
[13] = dose: 100.0 mg/kg/injection, schedule: Q01DX005 (ip), vehicle: Klucel (hydroxypropylcellulose) (HPC)
[14] = dose: 50.0 mg/kg/injection, schedule: Q01DX009 (ip), vehicle: saline
[15] = dose: 100.0 mg/kg/injection, schedule: Q01DX009 (ip), vehicle: saline
[16] = dose: 200.0 mg/kg/injection, schedule: Q01DX009 (ip), vehicle: saline

Measured: T/C

C=CCNC(=S)Nc1ccc(OC(=O)Nc2ccc(Cl)c(Cl)c2)cc1
inactive: dose: 6.25 mg/kg/injection, schedule: Q01DX009 (ip), vehicle: saline with Tween-80 102 % of control | [1] 96 % of control | [2] 104 % of control | [3] 98 % of control

Nc1nc2ccc(CNc3ccc(C(=O)NC(CC(=O)O)C(=O)O)cc3)cc2c(=O)[nH]1 (stereo not given)
inactive: dose: 12.5 mg/kg/injection, schedule: Q01DX009 (ip), vehicle: Klucel (hydroxypropylcellulose) (HPC) 100 % of control | dose: 25.0 mg/kg/injection, schedule: Q01DX009 (ip), vehicle: Klucel (hydroxypropylcellulose) (HPC) 96 % of control | dose: 50.0 mg/kg/injection, schedule: Q01DX009 (ip), vehicle: Klucel (hydroxypropylcellulose) (HPC) 99 % of control and 103 % of control | dose: 100.0 mg/kg/injection, schedule: Q01DX009 (ip), vehicle: Klucel (hydroxypropylcellulose) (HPC) 116 % of control

COC(=O)/C(=C1/OC(=O)C(c2ccc(OC(C)=O)cc2)=C1O)c1ccc(Cl)cc1
inactive: dose: 50.0 mg/kg/injection, schedule: Q01DX009 (ip), vehicle: saline + Tween-80 + alcohol 111 % of control | dose: 100.0 mg/kg/injection, schedule: Q01DX009 (ip), vehicle: saline + Tween-80 + alcohol 115 % of control

CC(C)NC(=O)OCc1c(COC(=O)NC(C)C)c(-c2ccc(Cl)c(Cl)c2)n2c1C[C@@H](OC(=O)CCC(=O)O)C2 (tested in a mixture with another compound)
inactive: dose: 12.5 mg/kg/injection, schedule: Q01DX005 (ip), vehicle: water 106 % of control and 107 % of control | dose: 25.0 mg/kg/injection, schedule: Q01DX005 (ip), vehicle: water 107 % of control and 108 % of control | dose: 50.0 mg/kg/injection, schedule: Q01DX005 (ip), vehicle: water 111 % of control and 123 % of control | dose: 50.0 mg/kg/injection, schedule: Q04DX002 (ip), vehicle: water 103 % of control | dose: 100.0 mg/kg/injection, schedule: Q04DX002 (ip), vehicle: water 111 % of control | dose: 200.0 mg/kg/injection, schedule: Q04DX002 (ip), vehicle: water 107 % of control

C/C=C1\CN(C)C2Cc3c([nH]c4ccccc34)C(c3c(OC)ccc4c5c([nH]c34)C3(C(=O)OC)CC4CC(CC)C3N(CC5)C4)CC1C2C(=O)OC (stereo not given)
inactive: [1] 115 % of control | [2] 106 % of control | [3] 106 % of control | [4] 91 % of control

Cn1c(O)c(N=O)c(=O)[nH]c1=O
inactive: [3] 95 % of control | [4] 99 % of control | dose: 100.0 mg/kg/injection, schedule: Q04DX002 (ip), vehicle: saline with Tween-80 100 % of control | [5] 87 % of control

CC(=O)Nc1ccc(/C=C/c2ccc(N=C=S)cc2S(=O)(=O)O)c(S(=O)(=O)O)c1
inactive: [3] 110 % of control | [4] 110 % of control

NNC(=O)SCCC(=O)O
inactive: [6] 97 % of control | [7] 97 % of control | [8] 101 % of control

Nc1nnc(SCCCCCCCCCCCCSc2nnc(N)s2)s1
inactive: [9] 91 % of control | [10] 90 % of control | [11] 89 % of control | [12] 86 % of control

CCC(Oc1c2ccoc2c(OC)c2oc(C)cc(=O)c12)C(=O)OCCN1CCOCC1 (stereo not given)
inactive: [6] 102 % of control | [7] 104 % of control | [8] 98 % of control

CC(C)(C)[Si](C)(C)O[C@H]1C[C@@H](O[Si](C)(C)C(C)(C)C)C=C1S(=O)(=O)c1ccccc1
inactive: [9] 101 % of control | [10] 107 % of control | [11] 111 % of control

O=C1CN(CCN2CCCCC2)CC(=O)N2CCCCN12
inactive: [6] 102 % of control | [7] 107 % of control

OCCN(CCO)CC(O)c1cc(-c2ccccc2)nc2ccccc12 (stereo not given)
inactive: [9] 103 % of control | [10] 94 % of control | [11] 102 % of control and 103 % of control | [13] 110 % of control

CCCCCCCCC(C)C(=O)N1CCCC1C(=O)N1C(CC(=O)CC)CC(C)CC1C(=O)NC(C)C(=O)NC(C)(C)C(=O)NC(C)(C)C(=O)NC(C(=O)NC(C)C(=O)NC(C)(C)C(=O)NC(C)(C)C(=O)NC(C)CN(C)CCO)C(C)CC (stereo not given) (X17-P[X18]A[Aib][Aib]IA[Aib][Aib]-X19; configuration not given here)
inactive: dose: 0.62 mg/kg/injection, schedule: Q01DX009 (ip), vehicle: Klucel (hydroxypropylcellulose) (HPC) 120 % of control | dose: 1.25 mg/kg/injection, schedule: Q01DX009 (ip), vehicle: Klucel (hydroxypropylcellulose) (HPC) 118 % of control | dose: 2.5 mg/kg/injection, schedule: Q01DX009 (ip), vehicle: Klucel (hydroxypropylcellulose) (HPC) 110 % of control

CCOC(=O)c1c(N)ssc1=S
inactive: [14] 100 % of control | [15] 97 % of control | [16] 105 % of control

O=C1c2ccccc2C(=O)N1CNc1cccc(NCN2C(=O)c3ccccc3C2=O)c1
inactive: [4] 110 % of control | [5] 95 % of control | dose: 400.0 mg/kg/injection, schedule: Q01DX009 (ip), vehicle: saline with Tween-80 100 % of control

COc1cc2c3c(n(C)c(=O)c2cc1OC)-c1cc2c(cc1C3=O)OCO2
inactive: dose: 2.0 mg/kg/injection, schedule: Q01DX009 (ip), vehicle: distilled water + Tween-80 98 % of control | dose: 4.0 mg/kg/injection, schedule: Q01DX009 (ip), vehicle: distilled water + Tween-80 100 % of control | dose: 8.0 mg/kg/injection, schedule: Q01DX009 (ip), vehicle: distilled water + Tween-80 107 % of control | dose: 16.0 mg/kg/injection, schedule: Q01DX009 (ip), vehicle: distilled water + Tween-80 98 % of control | dose: 32.0 mg/kg/injection, schedule: Q01DX009 (ip), vehicle: distilled water + Tween-80 100 % of control | dose: 64.0 mg/kg/injection, schedule: Q01DX009 (ip), vehicle: distilled water + Tween-80 99 % of control and 109 % of control | dose: 128.0 mg/kg/injection, schedule: Q01DX009 (ip), vehicle: distilled water + Tween-80 111 % of control and 123 % of control | dose: 256.0 mg/kg/injection, schedule: Q01DX009 (ip), vehicle: distilled water + Tween-80 100 % of control and 92 % of control

O=C1N(Cc2ccccc2)CCN1Cc1ccccc1
inactive: [11] 95 % of control | [13] 94 % of control | [12] 104 % of control

CC(C)Nc1nc(N)nc(N)n1
inactive: [3] 100 % of control | [4] 91 % of control | [5] 96 % of control

COc1cc(C(=O)C(C=O)c2ccccc2)c([N+](=O)[O-])cc1OC (stereo not given)
inactive: [11] 94 % of control | [13] 98 % of control | [12] 92 % of control

CC(C)Nc1nc(Cl)nc(Cl)n1
inactive: [11] 98 % of control | [13] 93 % of control

COc1cccc2c1C(=O)c1c(O)c3c(c(O)c1C2=O)CC(O)(C(C)=O)CC3OC1CC(OC(=O)c2ccc([N+](=O)[O-])cc2)C(OC(=O)c2ccc([N+](=O)[O-])cc2)C(COC(=O)c2ccc([N+](=O)[O-])cc2)O1 (stereo not given)
inactive: dose: 3.13 mg/kg/injection, schedule: Q04DX003 (ip), vehicle: distilled water + Tween-80 100 % of control and 101 % of control | dose: 6.25 mg/kg/injection, schedule: Q04DX003 (ip), vehicle: distilled water + Tween-80 100 % of control and 99 % of control | dose: 12.5 mg/kg/injection, schedule: Q04DX003 (ip), vehicle: distilled water + Tween-80 104 % of control | dose: 25.0 mg/kg/injection, schedule: Q04DX003 (ip), vehicle: distilled water + Tween-80 102 % of control and 100 % of control | dose: 50.0 mg/kg/injection, schedule: Q04DX003 (ip), vehicle: distilled water + Tween-80 95 % of control

O=C(O)CC(O)CCO (stereo not given)
inactive: dose: 100.0 mg/kg/injection, schedule: Q01DX001 (ip), vehicle: saline 104 % of control | dose: 200.0 mg/kg/injection, schedule: Q01DX001 (ip), vehicle: saline 103 % of control | dose: 400.0 mg/kg/injection, schedule: Q01DX001 (ip), vehicle: saline 101 % of control

O=C(O)CSCCCCCCSCC(=O)O
inactive: [14] 103 % of control | [15] 103 % of control | [16] 103 % of control

NCc1cccn1OCc1ccccc1
inactive: dose: 60.0 mg/kg/injection, schedule: Q01DX005 (ip), vehicle: saline with Tween-80 100 % of control | dose: 120.0 mg/kg/injection, schedule: Q01DX005 (ip), vehicle: saline with Tween-80 106 % of control | dose: 240.0 mg/kg/injection, schedule: Q01DX005 (ip), vehicle: saline with Tween-80 104 % of control

COc1ccc(N=Cc2ccc(C(N)=S)cc2)cc1
inactive: dose: 50.0 mg/kg/injection, schedule: Q01DX001 (ip), vehicle: Klucel (hydroxypropylcellulose) (HPC) 107 % of control | dose: 100.0 mg/kg/injection, schedule: Q01DX001 (ip), vehicle: Klucel (hydroxypropylcellulose) (HPC) 102 % of control | dose: 200.0 mg/kg/injection, schedule: Q01DX001 (ip), vehicle: Klucel (hydroxypropylcellulose) (HPC) 98 % of control
